Broadly, the Ki is a dissociation constant, usually derived from enzyme kinetics or from competition with a known ligand. Read a low Ki as a stronger hold on the target. Broadly, the melting point is the temperature, or range, at which the solid turns liquid.

Some results are limits rather than exact numbers.

Series [1] concerns the target T1, Bovine carbonic anhydrase, isozyme III (Bos taurus, UniProt Q3SZX4).
T1 construct: purchased Biovar Ltd, Armenia
T1 sequence (Q3SZX4 1-260): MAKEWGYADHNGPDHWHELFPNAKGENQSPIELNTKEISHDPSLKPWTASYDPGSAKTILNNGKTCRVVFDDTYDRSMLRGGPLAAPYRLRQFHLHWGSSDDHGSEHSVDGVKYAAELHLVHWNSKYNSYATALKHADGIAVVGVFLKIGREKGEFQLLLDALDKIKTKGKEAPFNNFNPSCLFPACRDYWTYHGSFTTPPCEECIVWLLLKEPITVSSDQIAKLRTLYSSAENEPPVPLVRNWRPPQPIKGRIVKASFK
Kind of series: Carbonic anhydrase-III inhibition assay by size exclusion Hummel–Dreyer method (HDM) chromatography. The format is binding. Particulars: HDM size exclusion HPLC; 0.24 mM analyte in mobile phase; 10% acetonitrile, phosphate buffer pH 6.5; 37 °C; CA-III injected at three concentrations. As to the method:
HPLC screening was conducted on the LC-2010A HT HPLC system, coupled with column temperature controller, degasser, auto sampler, and isocratic elution system, LC-solution software (to calculate peak area), Shimadzu Corporation, Kyoto, Japan. Back pressure was maintained around 6 MPA. A Phenomenex BioSep-SEC s2000, 300 × 7.8 mm column was used for size exclusion chromatography.
Bovine carbonic anhydrase, isozyme III (Biovar Ltd, Armenia) was stored at 0 °C in refrigerator until use. Enzyme was left for few minutes at room temperature before analysis. HPLC-grade methanol and acetonitrile (Fisher Scientific, Loughborough, UK) were used without further purification. NaH2PO4.H2O (Gainland, Deeside, UK), HCl (Carlo Erba, Italy), NaOH (Lonver, UK), and deionised water were used for the preparation of mobile phase. All the required chemicals for the synthesis of target compounds (12–16b) were procured either from Fisher Scientific, Loughborough, UK or Sigma-Aldrich, St. Louis, MO.
Each target compounds (12–16b) was dissolved in a mixture of acetonitrile: phosphate buffer, pH 6.5 (1:9 v/v) to obtain a final concentration of 0.24 mM. Subsequently, filtration and degassing by sonication were conducted for the mobile phase. Three different enzyme (CA-III) concentrations of […] were prepared from the stock solution (containing 0.865 mg in 10 mL of distilled water) by subsequent dilution method and injected separately in each run in the chromatographic system. All samples were used in duplicate. Vanillic acid was used as a positive control, and toluene was used as a negative control.
The mobile phase used for analysis was chosen according to the optimised conditions obtained, where 10% of organic modifier, 30 mM phosphate buffer (pH = 6.5) and 37 °C temperature was used. Column was pre-equilibrated with the mobile phase for 50 min. The flow rate of mobile phase was maintained at 1 mL/min during the run time. A wavelength of 230 nm (λmax) was selected for the analysis of all the tested compounds.
CA-III inhibitory activities of all the 17 target compounds (12–16b) as shown in Table 1 were carried out by using size exclusion HDM chromatography. The HDM chromatography was preferred over colorimetric assay of CA inhibitors, due to the susceptibility of the colorimetric methods to the intrinsic acidic or alkaline properties of analytes (inhibitors), including the lower catalytic activity of CA-III in CO2 hydration. Moreover, in HDM chromatographic method, the dilution effect of the mobile phase not only provides comparatively larger space for interaction between the macromolecule (CA-III) and analytes, but also lowers the probability of self-aggregation of macromolecules[35–37]^,[41]. The HDM was further optimised prior to use, where mobile phase was buffered to maintain the pH = 6.5 to mimic the physiological condition and to minimise the intrinsic properties of analytes. Moreover, acetonitrile (10%) was used to facilitate the elution of analytes (inhibitors) from the hydrophobic column as well as to prevent the adhesion of macromolecule to the stationary phase of the column. A constant optimised temperature of 37 °C was maintained throughout the chromatographic run, as the increase in temperature could not only influence the protein-ligand interaction but also affect the longevity of the column.
The chromatographic analysis by HDM is basically based on the measurement of the intensity of the formation of vacancy (negative) peak due to the subtraction of CA-III bound portion of analytes from the mobile phase. This method is also independent of the enzyme catalytic activity, thereby considered as more sensitive method for the estimation of inhibitory activities of analytes as compared to the colorimetric assay[35–37]^,[41]. Thus, weak inhibitors created weak vacancy peaks independent of the enzyme concentrations. […]
In general terms: Size exclusion chromatography separates by hydrodynamic size, large species first.

`COC(=O)c1nc(N)sc1-c1ccccc1` [Compound 12]: the Ki in series [1] is more than 500 µM. Still for that read-out and setting: in the case of `Nc1nc(C(=O)O)c(-c2ccccc2)s1` [Compound 12a, 2-amino-5-phenylthiazole-4-carboxylic acid] it was 0.5 µM; in that of `COC(=O)c1nc(NC(=O)c2ccc([N+](=O)[O-])cc2)sc1-c1ccccc1` [Compound 12b, Methyl-2-(4-nitrobenzamido)-5-substituted-thiazole-4-carboxylate], more than 500 µM. Take `COC(=O)c1nc(N)sc1-c1ccc(C)cc1` [Compound 13, Methyl-2-amino-5-(p-tolyl)thiazole-4-carboxylate]: the melting point amounted to 201 °C. This compound also had a Ki in series [1] of more than 500 µM. On the same counts, the results for `Cc1ccc(-c2sc(N)nc2C(=O)O)cc1` [Compound 13a, 2-Amino-5-(p-tolyl)thiazole-4-carboxylic acid] are 236 °C and 18.9 µM. On the same counts, the results for `COC(=O)c1nc(NC(=O)Nc2ccccc2)sc1-c1ccc(C)cc1` [Compound 13b, Methyl-2-(3-phenylureido)-5-(p-tolyl)thiazole-4-carboxylate] are 147 °C and more than 500 µM.

`Cc1ccc(-c2sc(NC(=O)Nc3ccccc3)nc2C(=O)O)cc1` [Compound 13c, 2-(3-Phenylureido)-5-(p-tolyl)thiazole-4-carboxylic acid] yielded a melting point of 226 °C. This compound also returned a Ki in series [1] of 174 µM. The compound `COC(=O)c1nc(N)sc1-c1ccc(S(C)(=O)=O)cc1` [Compound 14, Methyl-2-amino-5-(4-(methylsulfonyl)phenyl)thiazole-4-carboxylate] registered a melting point of 260 °C. The compound also registered a Ki in series [1] of more than 500 µM. On the same counts, the results for `CS(=O)(=O)c1ccc(-c2sc(N)nc2C(=O)O)cc1` [Compound 14a, 2-Amino-5-(4-(methylsulfonyl)phenyl)thiazole-4-carboxylic acid] are 238 °C and 86.6 µM. In the case of `COC(=O)c1nc(NC(=O)c2ccc(OC)cc2)sc1-c1ccc(S(C)(=O)=O)cc1` [Compound 14b, Methyl-2-(4-methoxybenzamido)-5-(4-(methylsulfonyl)phenyl)thiazole-4-carboxylate], the melting point amounted to 239 °C. The compound also came in with a Ki in series [1] of more than 500 µM. On the same counts, the results for `COc1ccc(C(=O)Nc2nc(C(=O)O)c(-c3ccc(S(C)(=O)=O)cc3)s2)cc1` [Compound 14c, 2-(4-Methoxybenzamido)-5-(4-(methylsulfonyl)phenyl)thiazole-4-carboxylic acid] are 174 °C and 186 µM. On the same counts, the results for `COC(=O)c1nc(NC(=O)Nc2ccccc2)sc1-c1ccc(S(C)(=O)=O)cc1` [Compound 14d, Methyl 5-(4-(methylsulfonyl)phenyl)-2-(3-phenylureido)thiazole-4-carboxylate] are 143 °C and more than 500 µM. `COC(=O)c1nc(N)sc1-c1ccc(Cl)c([N+](=O)[O-])c1` [Compound 15] returned a Ki in series [1] of more than 500 µM. In turn, `Nc1nc(C(=O)O)c(-c2ccc(Cl)c([N+](=O)[O-])c2)s1` [Compound 15a, 2-Amino-5-(4-chloro-3-nitrophenyl)thiazole-4-carboxylic acid] came in with a melting point of 163 °C. Further, the Ki in series [1] came out at 81.2 µM. In series [1], `COC(=O)c1nc(N)sc1Cc1ccccc1` [Compound 16] returned a Ki of more than 500 µM. In turn, `Nc1nc(C(=O)O)c(Cc2ccccc2)s1` [Compound 16a] gave a Ki in series [1] of more than 500 µM.

The compound `COC(=O)c1nc(NC(=O)Nc2ccccc2)sc1Cc1ccccc1` [Compound 16b, Methyl-5-benzyl-2-(3-phenylureido)thiazole-4-carboxylate] came in with a melting point of 226 °C. Further, the Ki in series [1] was more than 500 µM. For the compound `COc1cc(C(=O)O)ccc1O` [Vanillic acid, reference compound], the inhibition constant Ki in series [1] turned out to be 6.8 µM.
